Measurements from the NIST ThermoML archive (doi:10.1016/j.jct.2005.06.011).
Numbers after ± are expanded uncertainties.

Experiments:
[1] = 101 kPa, Liquid; for speed of sound: Linear variable-path acoustic interferometer
[2] = refractive index (Na D-line) (dimensionless); conditions: 101.33 kPa, Liquid

SMILES	mass density ([1]; 298.15 K)	viscosity ([1]; 298.15 K)	speed of sound ([1]; 298.15 K)	mass density ([1]; 303.15 K)	viscosity ([1]; 303.15 K)	mass density ([1]; 308.15 K)	viscosity ([1]; 308.15 K)	refractive index ([2]; 298.15 K)	refractive index ([2]; 303.15 K)	refractive index ([2]; 308.15 K)
CC(C)CO [2-methyl-1-propanol]	809.31 ± 8.1 kg/m3	3.097 ± 0.038 mPa·s	1170 ± 4 m/s	805.23 ± 8.1 kg/m3	2.635 ± 0.032 mPa·s	801.11 ± 8 kg/m3	2.249 ± 0.028 mPa·s	1.3932 ± 0.0013	1.3917 ± 0.0013	1.3896 ± 0.0013
CCO [ethanol]	785.66 ± 7.9 kg/m3	1.083 ± 0.013 mPa·s	1161 ± 4 m/s	781.34 ± 7.8 kg/m3	0.985 ± 0.012 mPa·s	776.99 ± 7.8 kg/m3	0.8954 ± 0.011 mPa·s	1.3608 ± 0.0012	1.3589 ± 0.0012	1.3563 ± 0.0012
CC(C)CCO [3-methylbutan-1-ol]	820.17 ± 8.2 kg/m3	2.779 ± 0.034 mPa·s	1259 ± 4 m/s	816.28 ± 8.2 kg/m3	2.258 ± 0.028 mPa·s	812.34 ± 8.1 kg/m3	1.844 ± 0.023 mPa·s	1.4056 ± 0.0013	1.4034 ± 0.0013	1.4013 ± 0.0013
CC(C)O [propan-2-ol]	781.05 ± 7.8 kg/m3	2.076 ± 0.024 mPa·s	1144 ± 4 m/s	776.79 ± 7.8 kg/m3	1.786 ± 0.021 mPa·s	772.43 ± 7.7 kg/m3	1.532 ± 0.018 mPa·s	1.3765 ± 0.0012	1.3741 ± 0.0012	1.3716 ± 0.0012
CCCO [propan-1-ol]	809.65 ± 8.1 kg/m3	2.077 ± 0.024 mPa·s	1206 ± 4 m/s	805.5 ± 8.1 kg/m3	1.809 ± 0.022 mPa·s	801.32 ± 8 kg/m3	1.595 ± 0.019 mPa·s	1.384 ± 0.0012	1.3819 ± 0.0012	1.38 ± 0.0012
CC1CCCCC1 [methylcyclohexane]	764.99 ± 7.7 kg/m3	0.6757 ± 0.0095 mPa·s	1217 ± 4 m/s	760.66 ± 7.6 kg/m3	0.631 ± 0.0089 mPa·s	756.3 ± 7.6 kg/m3	0.5902 ± 0.0085 mPa·s	1.4217 ± 0.0013	1.4192 ± 0.0013	1.4163 ± 0.0013
CCCCO [butan-1-ol]	808.49 ± 8.1 kg/m3	2.587 ± 0.032 mPa·s	1268 ± 4 m/s	804.6 ± 8.1 kg/m3	2.254 ± 0.028 mPa·s	800.67 ± 8 kg/m3	1.988 ± 0.025 mPa·s	1.3983 ± 0.0025	1.3959 ± 0.0025	1.394 ± 0.0025
